Publication PMC5218480 (PLoS ONE, 2017)

Test system: MV-4-11 cells
Test: Gene expression microarray analysis (Affymetrix PrimeView) and GSEA
Type: cell-based, human
Design: RFU PODN (11730768_x_at) / Fold change /veh PODN (11730768_x_at) / RFU LINC00158 (11744669_a_at) / Fold change /veh LINC00158 (11744669_a_at) / RFU DUSP10 (11751237_a_at) / Fold change /veh DUSP10 (11751237_a_at) / RFU ID3 (11757404_x_at) / Fold change /veh ID3 (11757404_x_at) / RFU PLEKHG5 (11737974_s_at) / Fold change /veh PLEKHG5 (11737974_s_at) / RFU LRRC4B (11730491_at) / Fold change /veh LRRC4B (11730491_at) / RFU GIMAP4 (11747438_a_at) / Fold change /veh GIMAP4 (11747438_a_at) / RFU KRT8 (11758183_x_at) / Fold change /veh KRT8 (11758183_x_at) / RFU CNN1 (11734310_a_at) / Fold change /veh CNN1 (11734310_a_at) / RFU VPS37D (11726825_at) / Fold change /veh VPS37D (11726825_at) / RFU C10orf10 (11716522_x_at) / Fold change /veh C10orf10 (11716522_x_at) / RFU KIR2DL2 /// KIR2DL4 /// KIR2DL5A /// KIR2DL5B /// KIR2DS1 /// KIR2DS2 /// KIR2DS3 /// KIR2DS4 /// KIR3DL3 /// KIR3DL3 /// KIR3DS1 (11738374_at) / Fold change /veh KIR2DL2 /// KIR2DL4 /// KIR2DL5A /// KIR2DL5B /// KIR2DS1 /// KIR2DS2 /// KIR2DS3 /// KIR2DS4 /// KIR3DL3 /// KIR3DL3 /// KIR3DS1 (11738374_at) / RFU C1QL1 (11718748_at) / Fold change /veh C1QL1 (11718748_at) / RFU TMPRSS4 (11747572_a_at) / Fold change /veh TMPRSS4 (11747572_a_at) / RFU HAMP (11756126_x_at) / Fold change /veh HAMP (11756126_x_at) / RFU RNFT2 (11725882_a_at) / Fold change /veh RNFT2 (11725882_a_at) / RFU NR4A2 (11747474_a_at) / Fold change /veh NR4A2 (11747474_a_at) / RFU ABCC12 (11746883_a_at) / Fold change /veh ABCC12 (11746883_a_at) / RFU TMEM136 (11760407_x_at) / Fold change /veh TMEM136 (11760407_x_at) / RFU CLDN22 /// WWC2 (11732394_at) / Fold change /veh CLDN22 /// WWC2 (11732394_at) / RFU HLA-DPB1 (11760878_x_at) / Fold change /veh HLA-DPB1 (11760878_x_at) / RFU SPINT1 (11716480_a_at) / Fold change /veh SPINT1 (11716480_a_at) / RFU GAP43 (11754022_s_at) / Fold change /veh GAP43 (11754022_s_at) / RFU A4GNT (11735810_at) / Fold change /veh A4GNT (11735810_at) / RFU PRB3 (11715151_x_at) / Fold change /veh PRB3 (11715151_x_at) / RFU TUBB4B (11761932_at) / Fold change /veh TUBB4B (11761932_at) / RFU CAPN14 (11732068_a_at) / Fold change /veh CAPN14 (11732068_a_at) / RFU TMCC2 (11721928_a_at) / Fold change /veh TMCC2 (11721928_a_at) / RFU IRGQ (11745062_a_at) / Fold change /veh IRGQ (11745062_a_at) / RFU FAM174B (11720279_a_at) / Fold change /veh FAM174B (11720279_a_at) / RFU TMPRSS4 (11748680_a_at) / Fold change /veh TMPRSS4 (11748680_a_at) / RFU FAM212B (11763350_a_at) / Fold change /veh FAM212B (11763350_a_at) / RFU PLEKHG5 (11743358_a_at) / Fold change /veh PLEKHG5 (11743358_a_at) / RFU ZSCAN30 (11745921_a_at) / Fold change /veh ZSCAN30 (11745921_a_at) / RFU CMKLR1 (11741424_a_at) / Fold change /veh CMKLR1 (11741424_a_at) / RFU LOC101060620 /// MAPK8IP1 (11723275_at) / Fold change /veh LOC101060620 /// MAPK8IP1 (11723275_at) / RFU SPTSSB (11747773_x_at) / Fold change /veh SPTSSB (11747773_x_at) / RFU PRSS12 (11739890_at) / Fold change /veh PRSS12 (11739890_at) / RFU BIN1 (11741810_x_at) / Fold change /veh BIN1 (11741810_x_at) / RFU WNT11 (11732464_a_at) / Fold change /veh WNT11 (11732464_a_at) / RFU C10orf10 (11716521_a_at) / Fold change /veh C10orf10 (11716521_a_at) / RFU C5orf56 (11738089_at) / Fold change /veh C5orf56 (11738089_at) / RFU CYB561 (11721691_x_at) / Fold change /veh CYB561 (11721691_x_at) / RFU ANKRD19P (11752326_a_at) / Fold change /veh ANKRD19P (11752326_a_at) / RFU OR2T12 /// OR2T33 /// OR2T8 (11738714_s_at) / Fold change /veh OR2T12 /// OR2T33 /// OR2T8 (11738714_s_at) / RFU VCAN (11748164_a_at) / Fold change /veh VCAN (11748164_a_at) / RFU JSRP1 (11732532_at) / Fold change /veh JSRP1 (11732532_at) / RFU KRTAP10-11 (11738290_x_at) / Fold change /veh KRTAP10-11 (11738290_x_at) / RFU MYO3A (11730013_a_at) / Fold change /veh MYO3A (11730013_a_at) / RFU EBF3 (11725865_a_at) / Fold change /veh EBF3 (11725865_a_at) / RFU CAMK2N1 (11719241_x_at) / Fold change /veh CAMK2N1 (11719241_x_at) / RFU C5orf56 (11738088_a_at) / Fold change /veh C5orf56 (11738088_a_at) / RFU OLFML3 (11715873_a_at) / Fold change /veh OLFML3 (11715873_a_at) / RFU LOC100653217 /// NTM (11731650_a_at) / Fold change /veh LOC100653217 /// NTM (11731650_a_at) / RFU MAPK11 (11762145_a_at) / Fold change /veh MAPK11 (11762145_a_at) / RFU FIZ1 (11724087_x_at) / Fold change /veh FIZ1 (11724087_x_at) / RFU OASL (11726364_x_at) / Fold change /veh OASL (11726364_x_at) / RFU SOX15 (11748057_x_at) / Fold change /veh SOX15 (11748057_x_at) / RFU CD79A (11719716_a_at) / Fold change /veh CD79A (11719716_a_at) / RFU HIST1H1D (11736915_at) / Fold change /veh HIST1H1D (11736915_at) / RFU CASKIN2 (11723855_a_at) / Fold change /veh CASKIN2 (11723855_a_at) / RFU LOC730098 (11760151_x_at) / Fold change /veh LOC730098 (11760151_x_at) / RFU OR4N2 (11742367_at) / Fold change /veh OR4N2 (11742367_at) / RFU PRRT2 (11749266_a_at) / Fold change /veh PRRT2 (11749266_a_at) / RFU SNX32 (11753110_a_at) / Fold change /veh SNX32 (11753110_a_at) / RFU CDHR5 (11726645_a_at) / Fold change /veh CDHR5 (11726645_a_at) / RFU RCAN1 (11760418_a_at) / Fold change /veh RCAN1 (11760418_a_at) / RFU FAM167A (11723789_a_at) / Fold change /veh FAM167A (11723789_a_at) / RFU FAM26E (11764081_at) / Fold change /veh FAM26E (11764081_at) / RFU ISYNA1 (11749810_s_at) / Fold change /veh ISYNA1 (11749810_s_at) / RFU ACY1 (11761880_at) / Fold change /veh ACY1 (11761880_at) / RFU 11764098_at / Fold change /veh 11764098_at / RFU SAMD14 (11745864_x_at) / Fold change /veh SAMD14 (11745864_x_at) / RFU NPB (11741838_a_at) / Fold change /veh NPB (11741838_a_at) / RFU TMPRSS6 (11731388_a_at) / Fold change /veh TMPRSS6 (11731388_a_at) / RFU KRTAP10-2 (11738614_at) / Fold change /veh KRTAP10-2 (11738614_at) / RFU ARHGAP8 /// PRR5-ARHGAP8 (11727945_x_at) / Fold change /veh ARHGAP8 /// PRR5-ARHGAP8 (11727945_x_at) / RFU KRTAP5-7 /// NADSYN1 (11734609_at) / Fold change /veh KRTAP5-7 /// NADSYN1 (11734609_at) / RFU RASL12 (11751679_a_at) / Fold change /veh RASL12 (11751679_a_at) / RFU CDKN2B (11736163_a_at) / Fold change /veh CDKN2B (11736163_a_at) / RFU PRF1 (11729649_at) / Fold change /veh PRF1 (11729649_at) / RFU, ZNF638 /// ZNF638-IT1 / Fold change vs veh, ZNF638 /// ZNF638-IT1 / RFU, PANK3 / Fold change vs veh, PANK3 / RFU, SH3YL1 / Fold change vs veh, SH3YL1 / RFU, ZEB2 / Fold change vs veh, ZEB2 / RFU, NRIP1 / Fold change vs veh, NRIP1 / RFU, PTTG1IP / Fold change vs veh, PTTG1IP / RFU, CAPN2 / Fold change vs veh, CAPN2 / RFU, MED14 / Fold change vs veh, MED14 / RFU, SNORA58 / Fold change vs veh, SNORA58 / RFU, C1orf63 / Fold change vs veh, C1orf63 / RFU, LRRFIP1 / Fold change vs veh, LRRFIP1 / RFU, NDUFAF7 / Fold change vs veh, NDUFAF7 / RFU, SLC12A2 / Fold change vs veh, SLC12A2 / RFU, IBTK / Fold change vs veh, IBTK / RFU, ESF1 / Fold change vs veh, ESF1 / Fold change vs veh, TMEM50B / RFU, TAOK1 / Fold change vs veh, TAOK1 / RFU, ACBD3 / Fold change vs veh, ACBD3 / RFU, TMA16 / Fold change vs veh, TMA16 / RFU, RWDD3 / Fold change vs veh, RWDD3 / RFU, BCAT1 / Fold change vs veh, BCAT1 / RFU, EDEM3 / Fold change vs veh, EDEM3 / RFU, TMEM33 / Fold change vs veh, TMEM33 / RFU, WDR75 / Fold change vs veh, WDR75 / RFU, AHCTF1 / Fold change vs veh, AHCTF1 / RFU, TFRC / Fold change vs veh, TFRC / RFU, ZDHHC17 / Fold change vs veh, ZDHHC17 / RFU, NOM1 / Fold change vs veh, NOM1 / RFU, ARL8B / Fold change vs veh, ARL8B / RFU, ZBTB11 / Fold change vs veh, ZBTB11 / RFU, TAMM41 / Fold change vs veh, TAMM41 / RFU, KIAA1704 /// LOC100996395 / Fold change vs veh, KIAA1704 /// LOC100996395 / RFU, ING1 / Fold change vs veh, ING1 / RFU, TRMT61B / Fold change vs veh, TRMT61B / RFU, FUBP3 / Fold change vs veh, FUBP3 / RFU, TP53 / Fold change vs veh, TP53 / RFU, TNKS2 / Fold change vs veh, TNKS2 / RFU, ZFP14 / Fold change vs veh, ZFP14 / RFU, ACTR2 / Fold change vs veh, ACTR2 / RFU, PPP3R1 / Fold change vs veh, PPP3R1 / RFU, PIK3R1 / Fold change vs veh, PIK3R1 / RFU, HNRNPA1 / Fold change vs veh, HNRNPA1 / RFU, RNF170 / Fold change vs veh, RNF170 / RFU, ZNF28 / Fold change vs veh, ZNF28 / RFU, RNGTT / Fold change vs veh, RNGTT / RFU, OGT / Fold change vs veh, OGT / RFU, BRD1 / Fold change vs veh, BRD1 / RFU, MARS / Fold change vs veh, MARS / RFU, ZNF655 / Fold change vs veh, ZNF655 / RFU, FAHD1 / Fold change vs veh, FAHD1 / RFU, BDP1 / Fold change vs veh, BDP1 / RFU, LRRCC1 / Fold change vs veh, LRRCC1 / RFU, ARID1A / Fold change vs veh, ARID1A / RFU, ZNF146 / Fold change vs veh, ZNF146 / RFU, ZNF330 / Fold change vs veh, ZNF330 / RFU, GPN3 / Fold change vs veh, GPN3 / RFU, C9orf123 / Fold change vs veh, C9orf123 / RFU, N4BP2L2 / Fold change vs veh, N4BP2L2 / RFU, ARFIP1 / Fold change vs veh, ARFIP1 / RFU, FAM179B / Fold change vs veh, FAM179B / RFU, BCL10 / Fold change vs veh, BCL10 / RFU, UHRF1BP1L / Fold change vs veh, UHRF1BP1L / RFU, BET1 / Fold change vs veh, BET1 / RFU, CNOT2 / Fold change vs veh, CNOT2 / RFU, ZNF268 / Fold change vs veh, ZNF268 / Fold change vs veh, ZNF507 / RFU, DGCR2 / Fold change vs veh, DGCR2 / RFU, WDSUB1 / Fold change vs veh, WDSUB1 / Fold change vs veh, HSP90B1 /// MIR3652 / RFU, ADSS / Fold change vs veh, ADSS / RFU, GK / Fold change vs veh, GK / RFU, ZNF148 / Fold change vs veh, ZNF148 / RFU, TAF9 / Fold change vs veh, TAF9 / RFU, SLC1A5 / Fold change vs veh, SLC1A5 / RFU, SLMO2 / Fold change vs veh, SLMO2 / RFU, ABCC4 / Fold change vs veh, ABCC4 / RFU, LOC101060439 /// RAP1B / Fold change vs veh, LOC101060439 /// RAP1B / RFU, RFX7 / Fold change vs veh, RFX7 / RFU, GTPBP10 / Fold change vs veh, GTPBP10 / RFU, CNEP1R1 / Fold change vs veh, CNEP1R1 / RFU, BIVM-ERCC5 /// ERCC5 / Fold change vs veh, BIVM-ERCC5 /// ERCC5 / RFU, ILF3 / Fold change vs veh, ILF3 / RFU 11762660_at / Fold change /veh 11762660_at / RFU VCAN (11757783_s_at) / Fold change /veh VCAN (11757783_s_at) / RFU DDX43 (11728927_at) / Fold change /veh DDX43 (11728927_at) / RFU KRT8 (11758188_x_at) / Fold change /veh KRT8 (11758188_x_at) / RFU NKD1 (11759106_at) / Fold change /veh NKD1 (11759106_at) / RFU SRD5A1 (11742802_a_at) / Fold change /veh SRD5A1 (11742802_a_at) / RFU TPSAB1 /// TPSB2 (11721975_s_at) / Fold change /veh TPSAB1 /// TPSB2 (11721975_s_at) / RFU GSTM3 (11746129_a_at) / Fold change /veh GSTM3 (11746129_a_at) / RFU IL23R (11737362_x_at) / Fold change /veh IL23R (11737362_x_at) / RFU TMEM51 (11727254_a_at) / Fold change /veh TMEM51 (11727254_a_at) / RFU PIWIL2 (11732686_x_at) / Fold change /veh PIWIL2 (11732686_x_at) / RFU ORM1 (11744905_x_at) / Fold change /veh ORM1 (11744905_x_at) / RFU CCDC152 (11743942_at) / Fold change /veh CCDC152 (11743942_at) / RFU ECM1 (11717891_a_at) / Fold change /veh ECM1 (11717891_a_at) / RFU IL23R (11748794_a_at) / Fold change /veh IL23R (11748794_a_at) / RFU TNFAIP8L3 (11732012_x_at) / Fold change /veh TNFAIP8L3 (11732012_x_at) / RFU MBOAT4 (11741988_at) / Fold change /veh MBOAT4 (11741988_at) / RFU 11764193_at / Fold change /veh 11764193_at / RFU TMEM53 (11763286_at) / Fold change /veh TMEM53 (11763286_at) / RFU MAGEB2 (11727129_at) / Fold change /veh MAGEB2 (11727129_at) / RFU TMEM200A (11744735_a_at) / Fold change /veh TMEM200A (11744735_a_at) / RFU CCDC152 (11751479_a_at) / Fold change /veh CCDC152 (11751479_a_at) / RFU FAM211A (11726209_a_at) / Fold change /veh FAM211A (11726209_a_at) / RFU RGS16 (11746705_a_at) / Fold change /veh RGS16 (11746705_a_at) / RFU VCAN (11755009_s_at) / Fold change /veh VCAN (11755009_s_at) / RFU RHOB (11743442_s_at) / Fold change /veh RHOB (11743442_s_at) / RFU RGS16 (11720943_a_at) / Fold change /veh RGS16 (11720943_a_at) / RFU RGS16 (11720944_at) / Fold change /veh RGS16 (11720944_at) / RFU, VPS4B / Fold change vs veh, VPS4B / RFU, CREB1 / Fold change vs veh, CREB1 / RFU, DNAJC13 / Fold change vs veh, DNAJC13 / RFU, GNAQ / Fold change vs veh, GNAQ / RFU, CDK5R1 / Fold change vs veh, CDK5R1 / RFU, ZRANB3 / Fold change vs veh, ZRANB3 / RFU, CUL4A / Fold change vs veh, CUL4A / RFU, CCNY / Fold change vs veh, CCNY / RFU, UFL1 / Fold change vs veh, UFL1 / RFU, COG3 / Fold change vs veh, COG3 / RFU, DIAPH2 / Fold change vs veh, DIAPH2 / RFU, SKA2 / Fold change vs veh, SKA2 / RFU, AFF3 / Fold change vs veh, AFF3 / RFU, LMF1 / Fold change vs veh, LMF1 / RFU, IPO11 / Fold change vs veh, IPO11 / RFU, DFFB / Fold change vs veh, DFFB / RFU, FOXP1 / Fold change vs veh, FOXP1 / RFU, CARD8 / Fold change vs veh, CARD8 / RFU, STRN3 / Fold change vs veh, STRN3 / RFU, ADK / Fold change vs veh, ADK / RFU, RASSF2 / Fold change vs veh, RASSF2 / RFU, WIPF1 / Fold change vs veh, WIPF1 / RFU, LARP1B / Fold change vs veh, LARP1B / RFU, RASA1 / Fold change vs veh, RASA1 / RFU, RB1 / Fold change vs veh, RB1 / RFU, PPFIA1 / Fold change vs veh, PPFIA1 / RFU, MAT2A / Fold change vs veh, MAT2A / RFU, CCT5 / Fold change vs veh, CCT5 / RFU, WDR92 / Fold change vs veh, WDR92 / RFU, CUX1 / Fold change vs veh, CUX1 / RFU, TTC7A / Fold change vs veh, TTC7A / RFU, TMEM135 / Fold change vs veh, TMEM135 / RFU, DEPTOR / Fold change vs veh, DEPTOR / RFU, CPM / Fold change vs veh, CPM / RFU, DNAJB6 / Fold change vs veh, DNAJB6 / RFU, CACNA2D3 / Fold change vs veh, CACNA2D3 / RFU, DTX4 / Fold change vs veh, DTX4 / RFU, TFCP2 / Fold change vs veh, TFCP2 / RFU, GMCL1 /// GMCL1P1 / Fold change vs veh, GMCL1 /// GMCL1P1 / RFU, AEBP2 / Fold change vs veh, AEBP2 / RFU, SNHG1 /// SNORD22 /// SNORD25 /// SNORD26 /// SNORD27 /// SNORD28 /// SNORD29 /// SNORD31 / Fold change vs veh, SNHG1 /// SNORD22 /// SNORD25 /// SNORD26 /// SNORD27 /// SNORD28 /// SNORD29 /// SNORD31 / Fold change (Aza/veh), C12orf56 (ProbeSet 11735607_a_at) / Fold change (ACY-1035/veh), C12orf56 (ProbeSet 11735607_a_at) / Fold change (Aza/veh), FGFR1OP (ProbeSet 11751329_s_at) / Fold change (ACY-1035/veh), FGFR1OP (ProbeSet 11751329_s_at) / Fold change (Aza/veh), VPS36 (ProbeSet 11739960_a_at) / Fold change (ACY-1035/veh), VPS36 (ProbeSet 11739960_a_at) / RFU SYPL1 (11715823_x_at) / Fold change /veh SYPL1 (11715823_x_at) / RFU IGFBP7 (11715501_s_at) / Fold change /veh IGFBP7 (11715501_s_at) / RFU REEP3 (11722064_at) / Fold change /veh REEP3 (11722064_at) / RFU IGLL1 (11728026_x_at) / Fold change /veh IGLL1 (11728026_x_at): dose or concentration left out as unconfirmed
Conditions: ProbeSet 11753234_a_at; LIST B

Nc1ncn([C@@H]2O[C@H](CO)[C@@H](O)[C@H]2O)c(=O)n1 [azacitidine]
RFU, TAMM41: 52.96 RFU
